Results: publication PMC4433810 (European journal of medicinal chemistry, 2015)

Tests used:
KB cells = assay: Folic acid; format: cell-based; details: 25 μM of 11e, absence vs presence of folic acid (250 μM); p < 0.01
[1] = test system: tubulin acetylation (marker of HDAC6 activity) in KB cells; assay: Western blot analysis of tubulin acetylation in KB cells; format: cell-based; details: 4 h, at IC50 doses and above
[2] = test system: FR (−) lung cancer cell line A549; assay: Cell viability; format: cell-based
[3] = test system: histone H4 acetylation (intracellular marker of HDAC1 inhibition) in KB cells; assay: Western blot analysis of histone H4 acetylation in KB cells; format: cell-based; details: 24 h
[4] = test system: KB (oral carcinoma) cells, FR (+); assay: Cell viability; format: cell-based; details: up to 100 μM
[5] = test system: HeLa (cervical carcinoma) cells, FR (+); assay: Cell viability; format: cell-based; details: up to 100 μM
HDAC1 = HDAC1 (Homo sapiens, UniProt Q13547); assay: SAMDI mass spectrometry HDAC activity assay, HDAC1; format: biochemical
HDAC8 = molecular target: T1, HDAC8 (Homo sapiens, UniProt Q9BY41); assay: SAMDI mass spectrometry HDAC activity assay, HDAC8; format: biochemical
T1 sequence (Q9BY41 1-377): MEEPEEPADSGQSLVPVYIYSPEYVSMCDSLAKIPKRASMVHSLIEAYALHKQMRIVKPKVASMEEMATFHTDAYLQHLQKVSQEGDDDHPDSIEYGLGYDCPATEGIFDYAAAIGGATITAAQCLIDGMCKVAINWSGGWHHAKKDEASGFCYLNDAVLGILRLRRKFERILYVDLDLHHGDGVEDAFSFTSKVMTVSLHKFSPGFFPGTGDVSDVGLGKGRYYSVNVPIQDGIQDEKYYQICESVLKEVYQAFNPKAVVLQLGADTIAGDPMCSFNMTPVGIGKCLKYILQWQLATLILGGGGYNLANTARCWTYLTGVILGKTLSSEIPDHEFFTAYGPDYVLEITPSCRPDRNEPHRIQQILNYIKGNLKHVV

HDAC6 = molecular target: T2, HDAC6 (Homo sapiens, UniProt Q9UBN7); assay: SAMDI mass spectrometry HDAC activity assay, HDAC6; format: biochemical
T2 sequence (Q9UBN7 1-1215): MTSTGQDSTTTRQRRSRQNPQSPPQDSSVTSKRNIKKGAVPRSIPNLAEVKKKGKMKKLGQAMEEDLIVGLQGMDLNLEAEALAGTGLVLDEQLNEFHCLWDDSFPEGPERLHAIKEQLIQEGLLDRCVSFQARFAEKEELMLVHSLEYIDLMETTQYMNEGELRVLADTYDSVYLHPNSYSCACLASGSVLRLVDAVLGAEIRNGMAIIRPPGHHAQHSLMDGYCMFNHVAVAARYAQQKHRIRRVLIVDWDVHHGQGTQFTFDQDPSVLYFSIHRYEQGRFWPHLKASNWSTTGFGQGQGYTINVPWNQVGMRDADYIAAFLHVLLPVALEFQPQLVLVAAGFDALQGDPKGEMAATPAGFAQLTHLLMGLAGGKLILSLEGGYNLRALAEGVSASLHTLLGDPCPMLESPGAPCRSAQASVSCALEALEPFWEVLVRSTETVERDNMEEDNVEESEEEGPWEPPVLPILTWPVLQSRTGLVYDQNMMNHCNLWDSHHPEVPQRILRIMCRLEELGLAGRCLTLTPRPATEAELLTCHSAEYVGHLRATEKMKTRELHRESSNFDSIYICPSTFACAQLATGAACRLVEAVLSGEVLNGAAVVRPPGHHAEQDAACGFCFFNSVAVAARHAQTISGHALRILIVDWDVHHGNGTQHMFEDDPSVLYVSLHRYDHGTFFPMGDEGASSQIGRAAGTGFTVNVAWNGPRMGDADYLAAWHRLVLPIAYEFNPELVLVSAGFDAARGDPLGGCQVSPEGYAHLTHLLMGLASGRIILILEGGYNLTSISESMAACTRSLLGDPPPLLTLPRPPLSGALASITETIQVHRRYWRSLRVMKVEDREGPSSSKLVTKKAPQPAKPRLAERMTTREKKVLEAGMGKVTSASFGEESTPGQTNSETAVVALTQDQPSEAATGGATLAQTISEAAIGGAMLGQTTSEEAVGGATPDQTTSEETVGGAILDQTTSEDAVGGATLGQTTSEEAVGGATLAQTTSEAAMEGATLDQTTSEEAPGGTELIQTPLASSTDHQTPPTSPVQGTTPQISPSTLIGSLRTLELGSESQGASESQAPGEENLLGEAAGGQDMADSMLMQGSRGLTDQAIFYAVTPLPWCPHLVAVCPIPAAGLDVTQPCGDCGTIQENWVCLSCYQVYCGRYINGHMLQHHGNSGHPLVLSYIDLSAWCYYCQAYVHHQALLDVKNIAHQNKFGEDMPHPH

[6] = SAHA 2 and 20μM, 11d 50 and 100μM, 11e 30 and 100μM

Chain of HDAC1 (Q13547 whole entry): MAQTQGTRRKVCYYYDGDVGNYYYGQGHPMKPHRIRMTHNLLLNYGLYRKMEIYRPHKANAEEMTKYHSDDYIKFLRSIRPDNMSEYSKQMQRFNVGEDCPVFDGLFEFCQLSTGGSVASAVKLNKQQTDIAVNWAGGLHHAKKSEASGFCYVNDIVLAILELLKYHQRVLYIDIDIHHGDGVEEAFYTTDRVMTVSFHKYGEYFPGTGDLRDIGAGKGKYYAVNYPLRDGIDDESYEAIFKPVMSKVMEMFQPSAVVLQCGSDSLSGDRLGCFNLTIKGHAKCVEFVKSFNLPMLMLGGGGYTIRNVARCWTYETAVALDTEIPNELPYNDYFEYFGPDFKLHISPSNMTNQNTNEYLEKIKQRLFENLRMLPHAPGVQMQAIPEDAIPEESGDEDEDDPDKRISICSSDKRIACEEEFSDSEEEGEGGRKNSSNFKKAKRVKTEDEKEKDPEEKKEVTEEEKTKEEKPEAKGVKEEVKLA

SMILES | Acetylated tubulin levels [1] | Activity against A549 cells, in words [2] | Histone H4 acetylation [3, 6] | also measured
Nc1nc2ncc(CNc3ccc(C(=O)NCCCCCCCC(=O)NO)cc3)nc2c(=O)[nH]1 [11e, 4-(((2-Amino-4-oxo-3,4-dihydropteridin-6-yl)methyl)amino)-N-(8-(hydroxyamino)-8-oxooctyl)benzamide] | increase in acetylated tubulin levels | inactive | dose dependent increases in histone H4 acetylation | Effect of folic acid on cytotoxicity (viability of KB cells) (KB cells): reduced the cytotoxicity
Nc1nc2ncc(CNc3ccc(C(=O)NCCCCCCC(=O)NO)cc3)nc2c(=O)[nH]1 [11d, 4-(((2-Amino-4-oxo-3,4-dihydropteridin-6-yl)methyl)amino)-N-(7-(hydroxyamino)-7-oxoheptyl)benzamide] | increase in acetylated tubulin levels | inactive | dose dependent increases in histone H4 acetylation | –
Nc1nc2ncc(CNc3ccc(C(=O)NO)cc3)nc2c(=O)[nH]1 [compound 7, 4-(((2-Amino-4-oxo-3,4-dihydropteridin-6-yl)methyl)amino)-N-hydroxybenzamide] | – | – | – | Cytotoxicity to KB cells, in words [4]: not cytotoxic; Cytotoxicity to HeLa cells, in words [5]: not cytotoxic; Histone H4 acetylation ([3]; 100 μM, relative to the control): little effect on H4 acetylation
CN1CCc2c(c3ccccc3n2Cc2ccc(C(=O)NO)cc2)C1 [Tubastatin A, reference compound] | – | – | – | Histone H4 acetylation ([3]; 14 μM): significant increase in H4 acetylation
O=C(CCCCCCC(=O)Nc1ccccc1)NO [SAHA, reference compound] | increase in acetylated tubulin levels | – | dose dependent increases in histone H4 acetylation | –
Nc1nc2ncc(CNc3ccc(C(=O)N[C@@H](CCC(=O)NO)C(=O)O)cc3)nc2c(=O)[nH]1 [compound 6, 2-(4-(((2-Amino-4-oxo-3,4-dihydropteridin-6-yl)methyl)amino)benzamido)-5-(hydroxyamino)-5-oxopentanoic acid] | – | – | – | HDAC1 inhibition, in words (HDAC1): inactive; HDAC8 inhibition, in words (HDAC8): inactive; HDAC6 inhibition, in words (HDAC6): inactive
